Measured values: paper PMC3708311 (Journal of medicinal chemistry, 2008)

Assays:
adrenergic receptor α1b = biological target: T1, adrenergic receptor α1b (Homo sapiens, UniProt P35368); assay: nonkinase panel, adrenergic receptor α1b; format: binding
T1 sequence (P35368 1-520): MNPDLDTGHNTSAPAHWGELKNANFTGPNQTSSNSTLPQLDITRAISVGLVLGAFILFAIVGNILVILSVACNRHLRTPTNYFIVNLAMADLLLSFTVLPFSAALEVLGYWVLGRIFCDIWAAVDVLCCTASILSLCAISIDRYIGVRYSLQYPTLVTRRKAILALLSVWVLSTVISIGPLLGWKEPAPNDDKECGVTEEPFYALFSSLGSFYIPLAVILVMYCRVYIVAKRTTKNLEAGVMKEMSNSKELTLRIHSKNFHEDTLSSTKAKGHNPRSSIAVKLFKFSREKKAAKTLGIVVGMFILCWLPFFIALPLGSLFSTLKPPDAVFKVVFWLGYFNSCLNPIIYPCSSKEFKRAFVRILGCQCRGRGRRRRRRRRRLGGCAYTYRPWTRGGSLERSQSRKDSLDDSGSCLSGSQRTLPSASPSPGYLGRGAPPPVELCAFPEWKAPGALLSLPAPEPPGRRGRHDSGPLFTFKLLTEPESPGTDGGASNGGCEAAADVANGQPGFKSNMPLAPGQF

Lats2 = biological target: T2, Lats2 (Homo sapiens, UniProt Q9NRM7); assay: Ambit kinase screen, single-point, Lats2; format: binding; details: read-out: percentage inhibition Lats2
T2 sequence (Q9NRM7 1-1088): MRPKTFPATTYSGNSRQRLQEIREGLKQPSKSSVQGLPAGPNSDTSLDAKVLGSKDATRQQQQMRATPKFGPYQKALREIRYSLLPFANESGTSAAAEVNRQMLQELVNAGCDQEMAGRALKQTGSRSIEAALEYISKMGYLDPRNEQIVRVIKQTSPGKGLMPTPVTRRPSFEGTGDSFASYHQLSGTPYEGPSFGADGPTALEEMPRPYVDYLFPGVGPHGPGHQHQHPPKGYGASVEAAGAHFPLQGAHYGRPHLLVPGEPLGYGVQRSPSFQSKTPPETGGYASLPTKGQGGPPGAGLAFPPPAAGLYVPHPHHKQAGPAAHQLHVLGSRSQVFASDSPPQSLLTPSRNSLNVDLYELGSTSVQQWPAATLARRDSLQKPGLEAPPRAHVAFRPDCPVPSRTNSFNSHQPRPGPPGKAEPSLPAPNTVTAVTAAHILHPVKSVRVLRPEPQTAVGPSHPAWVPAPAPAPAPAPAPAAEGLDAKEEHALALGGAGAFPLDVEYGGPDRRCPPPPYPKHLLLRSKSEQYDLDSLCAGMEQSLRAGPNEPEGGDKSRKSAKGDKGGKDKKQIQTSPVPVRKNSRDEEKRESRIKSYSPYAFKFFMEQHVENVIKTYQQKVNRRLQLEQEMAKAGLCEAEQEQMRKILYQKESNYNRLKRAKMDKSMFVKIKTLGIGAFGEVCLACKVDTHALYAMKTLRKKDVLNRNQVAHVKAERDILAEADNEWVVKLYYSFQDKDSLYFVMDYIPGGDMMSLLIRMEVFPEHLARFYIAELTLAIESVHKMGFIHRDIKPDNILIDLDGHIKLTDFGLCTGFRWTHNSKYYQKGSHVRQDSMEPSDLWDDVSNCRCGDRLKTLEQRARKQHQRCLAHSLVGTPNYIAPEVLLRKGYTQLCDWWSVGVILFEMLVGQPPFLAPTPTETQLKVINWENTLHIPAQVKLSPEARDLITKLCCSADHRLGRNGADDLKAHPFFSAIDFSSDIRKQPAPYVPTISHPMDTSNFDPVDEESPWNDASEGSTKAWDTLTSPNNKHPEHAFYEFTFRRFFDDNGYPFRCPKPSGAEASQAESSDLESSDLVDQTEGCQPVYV

Clk1 = Clk1 (Homo sapiens, UniProt P49759); assay: Ambit kinase screen, single-point, Clk1; format: binding; details: read-out: percentage inhibition Clk1
Akt3 = Akt3 (Homo sapiens, UniProt Q9Y243); assay: Ambit kinase screen, single-point, Akt3; format: binding; details: read-out: percentage inhibition Akt3
Clk4 = Clk4 (Homo sapiens, UniProt Q9HAZ1); assay: Ambit kinase screen, single-point, Clk4; format: binding; details: read-out: percentage inhibition Clk4
[1] = test system: myosin light chain bisphosphorylation (ppMLC); assay: cell-based myosin light chain bisphosphorylation; details: read-out: ppMLC cell-based IC50
Clk2 = Clk2 (Homo sapiens, UniProt P49760); assay: Ambit kinase screen, single-point, Clk2; format: binding; details: read-out: percentage inhibition Clk2
353 kinases = assay: profiling versus 353 kinases; format: binding; details: 3 µM
ROCK-II = ROCK-II (Homo sapiens, UniProt O75116); assay: ROCK-II biochemical assay; details: ROCK-II IC50, as given in text
adrenergic receptor α1a = biological target: T3, adrenergic receptor α1a (Homo sapiens, UniProt P35348); assay: nonkinase panel, adrenergic receptor α1a; format: binding
T3 sequence (P35348 1-466): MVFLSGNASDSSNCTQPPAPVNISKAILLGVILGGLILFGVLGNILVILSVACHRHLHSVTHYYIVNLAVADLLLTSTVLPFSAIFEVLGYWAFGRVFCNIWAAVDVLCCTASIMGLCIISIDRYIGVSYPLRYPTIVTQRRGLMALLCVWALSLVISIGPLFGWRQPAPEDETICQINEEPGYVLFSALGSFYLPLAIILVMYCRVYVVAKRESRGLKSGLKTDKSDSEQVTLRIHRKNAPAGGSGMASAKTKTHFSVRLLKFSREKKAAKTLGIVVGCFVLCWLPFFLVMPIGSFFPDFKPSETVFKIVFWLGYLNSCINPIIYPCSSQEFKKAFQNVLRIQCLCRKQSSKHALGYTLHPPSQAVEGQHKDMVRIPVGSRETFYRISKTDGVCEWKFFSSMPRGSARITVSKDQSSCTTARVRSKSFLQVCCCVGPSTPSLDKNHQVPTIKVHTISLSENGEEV

[2] = test system: aqueous humor outflow facility from the trabecular meshwork; assay: ex vivo aqueous humor outflow facility in perfused enucleated porcine eyes; details: 25 µM continuous exposure, 2–5 h time points, p < 0.01, porcine eyes ex vivo
[3] = test system: p-MLC in trabecular meshwork tissue; assay: Western blot analysis of p-MLC in TM tissue from perfused porcine eyes; details: 25 µM, perfused at 15 mmHg for 5 h
adrenergic receptor α2a = biological target: T4, adrenergic receptor α2a (Homo sapiens, UniProt P08913); assay: nonkinase panel, adrenergic receptor α2a; format: binding
T4 sequence (P08913 1-465): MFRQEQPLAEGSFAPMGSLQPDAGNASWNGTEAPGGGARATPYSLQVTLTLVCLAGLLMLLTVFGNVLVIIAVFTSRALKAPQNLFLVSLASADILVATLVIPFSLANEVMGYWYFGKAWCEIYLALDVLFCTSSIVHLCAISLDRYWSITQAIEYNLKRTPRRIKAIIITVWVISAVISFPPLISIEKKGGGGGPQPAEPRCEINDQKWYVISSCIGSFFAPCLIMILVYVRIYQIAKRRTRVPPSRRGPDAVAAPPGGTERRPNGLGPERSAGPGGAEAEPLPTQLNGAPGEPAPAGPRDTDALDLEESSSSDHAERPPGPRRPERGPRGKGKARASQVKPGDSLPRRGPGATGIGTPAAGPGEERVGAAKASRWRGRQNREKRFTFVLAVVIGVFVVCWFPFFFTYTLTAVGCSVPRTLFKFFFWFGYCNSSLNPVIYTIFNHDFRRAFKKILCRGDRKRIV

Chain of Clk2 (P49760 whole entry): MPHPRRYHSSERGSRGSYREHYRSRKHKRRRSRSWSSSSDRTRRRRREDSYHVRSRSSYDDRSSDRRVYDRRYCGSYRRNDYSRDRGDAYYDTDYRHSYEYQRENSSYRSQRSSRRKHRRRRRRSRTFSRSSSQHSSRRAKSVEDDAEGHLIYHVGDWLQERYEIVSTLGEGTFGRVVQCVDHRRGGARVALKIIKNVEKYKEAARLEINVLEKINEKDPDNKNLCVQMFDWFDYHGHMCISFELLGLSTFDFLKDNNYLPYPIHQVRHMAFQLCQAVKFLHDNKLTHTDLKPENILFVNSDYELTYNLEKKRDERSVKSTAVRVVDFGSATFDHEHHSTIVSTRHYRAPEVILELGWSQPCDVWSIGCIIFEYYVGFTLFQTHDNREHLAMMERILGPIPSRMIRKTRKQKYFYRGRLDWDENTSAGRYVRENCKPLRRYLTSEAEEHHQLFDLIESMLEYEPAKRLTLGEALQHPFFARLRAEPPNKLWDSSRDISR
Chain of Clk4 (Q9HAZ1 whole entry): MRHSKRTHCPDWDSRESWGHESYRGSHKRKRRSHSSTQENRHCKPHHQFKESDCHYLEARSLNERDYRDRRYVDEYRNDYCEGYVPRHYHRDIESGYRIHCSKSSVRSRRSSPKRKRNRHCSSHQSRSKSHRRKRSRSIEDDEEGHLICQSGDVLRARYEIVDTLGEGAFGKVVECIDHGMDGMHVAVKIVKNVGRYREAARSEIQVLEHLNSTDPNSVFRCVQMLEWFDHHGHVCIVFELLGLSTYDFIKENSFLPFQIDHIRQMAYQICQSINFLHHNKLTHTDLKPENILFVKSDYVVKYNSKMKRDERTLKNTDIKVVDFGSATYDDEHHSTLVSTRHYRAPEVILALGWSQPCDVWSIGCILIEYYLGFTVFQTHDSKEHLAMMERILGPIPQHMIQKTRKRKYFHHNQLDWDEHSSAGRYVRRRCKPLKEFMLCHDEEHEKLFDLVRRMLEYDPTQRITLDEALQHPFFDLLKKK
Chain of Akt3 (Q9Y243 whole entry): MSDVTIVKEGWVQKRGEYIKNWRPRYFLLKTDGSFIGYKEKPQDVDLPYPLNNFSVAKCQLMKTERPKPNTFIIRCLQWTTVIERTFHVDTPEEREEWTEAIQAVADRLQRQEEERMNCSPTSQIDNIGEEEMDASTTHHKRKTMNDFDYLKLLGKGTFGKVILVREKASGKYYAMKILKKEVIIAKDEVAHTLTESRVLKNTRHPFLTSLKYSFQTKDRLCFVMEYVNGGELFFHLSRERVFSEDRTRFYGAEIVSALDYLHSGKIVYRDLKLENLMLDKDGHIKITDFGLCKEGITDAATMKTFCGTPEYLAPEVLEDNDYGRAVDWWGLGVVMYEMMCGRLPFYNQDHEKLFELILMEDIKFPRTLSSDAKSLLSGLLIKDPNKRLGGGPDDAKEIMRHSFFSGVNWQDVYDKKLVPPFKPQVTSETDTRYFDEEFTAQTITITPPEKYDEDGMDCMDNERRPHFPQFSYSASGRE
Chain of ROCK-II (O75116 whole entry, species assumed): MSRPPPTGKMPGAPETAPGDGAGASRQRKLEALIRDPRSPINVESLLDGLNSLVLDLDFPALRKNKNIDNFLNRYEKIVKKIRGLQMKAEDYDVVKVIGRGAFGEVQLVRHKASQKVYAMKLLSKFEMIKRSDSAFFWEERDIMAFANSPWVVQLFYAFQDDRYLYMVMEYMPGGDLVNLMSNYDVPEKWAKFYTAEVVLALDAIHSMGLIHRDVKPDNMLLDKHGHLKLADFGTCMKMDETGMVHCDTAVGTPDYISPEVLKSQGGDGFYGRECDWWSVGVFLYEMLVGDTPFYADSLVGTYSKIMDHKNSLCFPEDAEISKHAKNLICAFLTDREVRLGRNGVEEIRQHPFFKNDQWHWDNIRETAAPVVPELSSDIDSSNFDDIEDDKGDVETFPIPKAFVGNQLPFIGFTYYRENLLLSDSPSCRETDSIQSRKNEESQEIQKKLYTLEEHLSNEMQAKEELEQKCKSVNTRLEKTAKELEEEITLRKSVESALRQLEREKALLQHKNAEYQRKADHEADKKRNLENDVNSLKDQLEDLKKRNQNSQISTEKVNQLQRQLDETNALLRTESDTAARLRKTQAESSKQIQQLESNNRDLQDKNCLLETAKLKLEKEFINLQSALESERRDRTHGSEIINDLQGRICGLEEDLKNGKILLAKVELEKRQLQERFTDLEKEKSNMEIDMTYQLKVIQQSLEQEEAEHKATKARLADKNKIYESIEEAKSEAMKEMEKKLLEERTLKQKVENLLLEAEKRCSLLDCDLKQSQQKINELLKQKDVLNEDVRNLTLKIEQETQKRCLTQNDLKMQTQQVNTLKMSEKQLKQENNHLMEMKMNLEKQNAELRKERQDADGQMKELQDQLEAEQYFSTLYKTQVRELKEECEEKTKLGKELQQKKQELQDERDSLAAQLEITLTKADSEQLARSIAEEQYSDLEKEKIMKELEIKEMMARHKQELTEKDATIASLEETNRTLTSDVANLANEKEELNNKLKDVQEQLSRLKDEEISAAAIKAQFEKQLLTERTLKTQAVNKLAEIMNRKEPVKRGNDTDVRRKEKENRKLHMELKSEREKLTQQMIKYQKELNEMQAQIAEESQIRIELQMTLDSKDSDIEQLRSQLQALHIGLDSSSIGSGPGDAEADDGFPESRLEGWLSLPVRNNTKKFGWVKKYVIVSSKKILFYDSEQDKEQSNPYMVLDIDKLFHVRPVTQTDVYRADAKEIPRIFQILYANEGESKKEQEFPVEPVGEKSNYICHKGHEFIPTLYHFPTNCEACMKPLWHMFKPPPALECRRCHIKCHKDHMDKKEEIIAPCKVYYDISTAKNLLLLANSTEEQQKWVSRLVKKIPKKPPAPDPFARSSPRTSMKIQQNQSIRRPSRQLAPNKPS
Chain of Clk1 (P49759 whole entry): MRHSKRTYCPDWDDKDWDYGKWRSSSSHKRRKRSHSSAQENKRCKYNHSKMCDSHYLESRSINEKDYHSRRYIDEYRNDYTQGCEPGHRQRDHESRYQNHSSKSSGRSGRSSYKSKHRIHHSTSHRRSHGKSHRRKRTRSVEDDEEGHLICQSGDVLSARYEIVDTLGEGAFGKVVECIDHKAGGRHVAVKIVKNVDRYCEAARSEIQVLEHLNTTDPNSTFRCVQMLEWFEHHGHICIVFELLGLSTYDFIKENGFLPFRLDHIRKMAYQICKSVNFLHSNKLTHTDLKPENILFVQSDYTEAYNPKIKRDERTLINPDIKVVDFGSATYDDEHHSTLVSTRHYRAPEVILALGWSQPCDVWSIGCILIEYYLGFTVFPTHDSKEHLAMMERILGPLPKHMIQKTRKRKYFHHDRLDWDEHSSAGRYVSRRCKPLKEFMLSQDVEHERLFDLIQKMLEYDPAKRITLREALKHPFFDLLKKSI

CN(C)CCOc1cc(-c2cn[nH]c2)ccc1NC(=O)C1COc2ccccc2O1 (centres unmarked) [Compound 5]
IC50 (adrenergic receptor α1b): ~1000 nM
inhibition at 3 µM (Lats2): > 50%
inhibition at 3 µM (Clk1): > 50%
inhibition at 3 µM (Akt3): > 50%
inhibition at 3 µM (Clk4): > 50%
IC50 [1]: ~3 nM
inhibition at 3 µM (Clk2): > 50%
off-target hit rate (353 kinases; 353 kinases, hits = inhibition greater than 50%): 1.4%
inhibition of all other kinases of the panel (353 kinases; single-point, no or very low inhibition): < 10%
IC50 (ROCK-II): ~3 nM
IC50 (adrenergic receptor α1a): ~1000 nM
increase of aqueous humor outflow facility [2]: 70–80%
inhibition of Rho kinase in the TM tissue (p-MLC Western blot) [3]: greater than 90%
IC50 (adrenergic receptor α2a): ~1000 nM
